In ChEMBL document CHEMBL3616453, “Recent progress in the development of small-molecule glucagon receptor antagonists” (Bioorg Med Chem Lett, 2015):

How the values were obtained:
Homo sapiens [1] = species: Homo sapiens; test: Hypoglycemic activity in human assessed as time required to glucose recovery from 50 mg/dl to >= 70 mg/dl at 200 mg (reference value: 33.3 min); type: functional
Homo sapiens [2] = species: Homo sapiens; test: Hypoglycemic activity in human assessed as time required to glucose recovery from 50 mg/dl to >= 70 mg/dl at 1 g (reference value: 33.3 min); type: functional
[3] = Half life in human; type: ADME, organism-based; conditions: in vivo
Homo sapiens [4] = test: Antidiabetic activity in type-2 diabetic human model assessed as reduction in HbA1c level at 80 mg, qd administered for 12 weeks measured after post last dose relative to control; type: functional; set-up: scale not given: the % may be the effect or the level left
Homo sapiens [5] = species: Homo sapiens; test: Hypoglycemic activity in type-2 diabetic human assessed as time required to glucose recovery from 50 mg/dl to >= 63 mg/dl at 1 g in presence of beta blocker propranolol (reference value: 71 min); type: functional
Homo sapiens [6] = test: Antidiabetic activity in type-2 diabetic human model assessed as reduction in HbA1c level at 60 mg, qd administered for 12 weeks measured after post last dose relative to control; type: functional; set-up: scale not given: the % may be the effect or the level left
Homo sapiens [7] = test: Antidiabetic activity in type-2 diabetic human model assessed as reduction in HbA1c level at 40 mg, qd administered for 12 weeks measured after post last dose relative to control; type: functional; set-up: scale not given: the % may be the effect or the level left
Homo sapiens [8] = test: Antidiabetic activity in type-2 diabetic human model assessed as reduction in HbA1c level at 20 mg, qd administered for 12 weeks measured after post last dose relative to control; type: functional; set-up: scale not given: the % may be the effect or the level left
Glucagon receptor [9] = molecular target: T1, Glucagon receptor (Homo sapiens, UniProt P47871); test: Displacement of [125I]-glucagon from human glucagon receptor expressed in HEK293 cell membranes at 10 uM after 2 hrs by microplate scintillation counting analysis relative to control
Glucagon receptor [10] = molecular target: T1, Glucagon receptor; test: Antagonist activity at recombinant human glucagon receptor expressed in CHO cells assessed as inhibition of glucagon-stimulated intracellular cAMP formation preincubated for 30 mins followed by glucagon stimulation measured after 45 mins by LANCE assay; type: functional, cell-based
Glucagon receptor [11] = molecular target: T1, Glucagon receptor; test: Displacement of [125I]-glucagon from full length human glucagon receptor expressed in HEK293 cell membranes after 2 hrs by scintillation counting analysis
Glucagon receptor [12] = molecular target: T1, Glucagon receptor; test: Antagonist activity at human glucagon receptor expressed in HEK293 cell membranes assessed as inhibition of glucagon-stimulated intracellular cAMP formation preincubated for 30 mins followed by glucagon stimulation measured after 5 mins by TR-FRET analysis; type: functional, cell-based
Glucagon receptor [13] = molecular target: T1, Glucagon receptor; test: Antagonist activity at human glucagon receptor expressed in CHOK1 cells assessed as inhibition of glucagon-stimulated intracellular cAMP formation preincubated for 20 mins followed by glucagon stimulation measured after 30 mins by fluorescent plate reader analysis; type: functional, cell-based; conditions: CHO-K1
Glucagon receptor [14] = molecular target: T1, Glucagon receptor; test: Displacement of [125I]-glucagon from human glucagon receptor expressed in Chem-1 cell membranes after 6 to 10 hrs by scintillation proximity assay
Homo sapiens [15] = test: In vivo inhibition of gucagon receptor in type-2 diabetic human model at 6 mg, qd measured during night time relative to control; type: functional
Homo sapiens [16] = species: Homo sapiens; test: Antidiabetic activity in type-2 diabetic human model assessed as decrease in fasting plasma glucose level at 25 mg, bid; type: functional
Homo sapiens [17] = species: Homo sapiens; test: Antidiabetic activity in type-2 diabetic human model assessed as decrease in 24 hrs weighted mean glucose level at 10 mg, qd measured during day time; type: functional
Homo sapiens [18] = species: Homo sapiens; test: Antidiabetic activity in type-2 diabetic human model assessed as decrease in fasting plasma glucose level at 6 mg, qd measured during night time; type: functional
Homo sapiens [19] = species: Homo sapiens; test: Toxicity in type-2 diabetic human model assessed as increase in LDL-C level at 25 mg, bid relative to control; type: organism-based; conditions: in vivo
Homo sapiens [20] = test: In vivo inhibition of gucagon receptor in type-2 diabetic human model at 10 mg, qd measured during day time relative to control; type: functional
Homo sapiens [21] = test: In vivo inhibition of gucagon receptor in type-2 diabetic human model at 25 mg, bid measured over 24 hrs relative to control; type: functional
Homo sapiens [22] = species: Homo sapiens; test: Antidiabetic activity in type-2 diabetic human model assessed as decrease in fasting plasma glucose level at 10 mg, qd measured during day time; type: functional

T1 sequence (P47871 whole entry): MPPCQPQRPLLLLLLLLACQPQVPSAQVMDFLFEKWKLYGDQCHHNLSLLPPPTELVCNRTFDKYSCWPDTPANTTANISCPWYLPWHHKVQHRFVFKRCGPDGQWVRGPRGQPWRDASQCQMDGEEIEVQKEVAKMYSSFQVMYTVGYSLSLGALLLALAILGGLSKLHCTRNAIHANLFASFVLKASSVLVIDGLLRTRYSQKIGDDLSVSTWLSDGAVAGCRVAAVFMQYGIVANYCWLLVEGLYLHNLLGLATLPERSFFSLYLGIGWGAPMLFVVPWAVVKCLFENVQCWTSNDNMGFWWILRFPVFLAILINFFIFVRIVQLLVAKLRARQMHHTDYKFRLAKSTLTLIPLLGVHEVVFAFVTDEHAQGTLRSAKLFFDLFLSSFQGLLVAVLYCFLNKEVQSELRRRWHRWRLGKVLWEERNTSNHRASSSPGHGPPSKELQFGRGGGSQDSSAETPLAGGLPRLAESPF

**Q.** For COc1ccc2cc(-c3cc(-c4cc(Cl)cc(Cl)c4)nn3[C@@H](C)c3ccc(C(=O)NCCC(=O)O)cc3)ccc2c1 [MK-0893], which Time (Homo sapiens [1]) is on record?
**A.** 45 min

**Q.** And the Time (Homo sapiens [2])?
**A.** 59.1 min

**Q.** What about the half-life [3] of the same compound?
**A.** 60 h

**Q.** And the Activity (Homo sapiens [4])?
**A.** 1.8%

**Q.** And the Time (Homo sapiens [5])?
**A.** 103 min

**Q.** And the Activity (Homo sapiens [6])?
**A.** 1.5%

**Q.** What about the Activity (Homo sapiens [7]) of the same compound?
**A.** 1%

**Q.** What about the Activity (Homo sapiens [8]) of the same compound?
**A.** 0.6%

**Q.** For Cc1cc(-n2cc3c(n2)CCCC3)ccc1C(CCC(F)(F)F)Nc1ccc(C(=O)N2CCC[C@@H](C(=O)O)C2)cn1 (stereo partly specified), which inhibition (Glucagon receptor [9]) is on record?
**A.** 90%

**Q.** Which IC50 (Glucagon receptor [10]) does the source give for CC(C)(C)CCOc1cccc(C2=NC3(CCC(C(C)(C)C)CC3)N([C@H](CCC(C)(C)C)c3ccc(C(=O)NCc4nn[nH]n4)cc3)C2=O)c1 (stereo partly specified) here?
**A.** 61 nM

**Q.** With Cc1cc(Cl)ccc1-c1ccc(NCc2cc(Cl)cc(C(F)(F)F)c2-c2ccc(C(=O)NCCC(=O)O)nc2)cc1 as the compound, how does the Ki (Glucagon receptor [11]) read?
**A.** 20 nM

**Q.** What about the IC50 (Glucagon receptor [12]) of the same compound?
**A.** 4 nM

**Q.** Which Kb (Glucagon receptor [13]) does the source give for CC1(C)CC(C(Nc2cnc(-n3cc(C(F)(F)F)cn3)nc2)c2ccc(C(=O)NCCC(=O)O)cc2)C1 (racemic) here?
**A.** 19 nM

**Q.** With CCC[C@H](Nc1ccc(-n2cc(-c3ccccc3)cn2)cc1)c1ccc(C(=O)NCCC(=O)O)cc1 as the compound, how does the Kb (Glucagon receptor [13]) read?
**A.** 9.5 nM

**Q.** And the Ki (Glucagon receptor [14])?
**A.** 26 nM

**Q.** With Cc1cc2cc(F)ccc2nc1NC(c1ccc(C(=O)NCCC(=O)O)cc1)C1CC(C)(C)C1 (stereo unspecified) as the compound, how does the Kb (Glucagon receptor [13]) read?
**A.** 33 nM

**Q.** With Cc1cc(C(F)(F)F)ccc1-c1ccc(NCc2cc(C(C)C)cc(C(F)(F)F)c2-c2ccc(C(=O)NCCC(=O)O)cc2)cc1Cl as the compound, how does the Ki (Glucagon receptor [11]) read?
**A.** 30 nM

**Q.** For Cc1cc(-c2ncc(C(F)(F)F)cn2)ccc1C(CCC(F)(F)F)Nc1ccc(C(=O)N2CCC[C@@H](C(=O)O)C2)cc1 (stereo partly specified), which inhibition (Glucagon receptor [9]) is on record?
**A.** 91%

**Q.** Which IC50 (Glucagon receptor [10]) does the source give for CC(C)(C)CC[C@H](c1ccc(C(=O)NCCC(=O)O)cc1)N1C(=O)C(c2cccc(F)c2)=NC12CCC([Si](C)(C)C)CC2 (stereo partly specified) here?
**A.** 22 nM

**Q.** Which Kb (Glucagon receptor [13]) does the source give for Cc1cc2ccccc2nc1NC(c1ccc(C(=O)NCCC(=O)O)cc1)C1CC(C)(C)C1 (stereo unspecified) here?
**A.** 23 nM

**Q.** Which results are given for Cc1cc(C(F)(F)F)ccc1-c1ccc(NCc2ccc(C(F)(F)F)cc2-c2ccc(C(=O)NCCC(=O)O)nc2)cc1Cl?
**A.** Ki (Glucagon receptor [11]): 17 nM; IC50 (Glucagon receptor [12]): 22 nM

**Q.** With CCC[C@H](c1ccc(C(=O)NCCC(=O)O)cc1)[C@H](c1ccc(Cl)cc1)c1c[nH]c2c(F)cc(C)cc12 [MK-3577] as the compound, how does the “inhibition (INH)” value (Homo sapiens [15]) read?
**A.** <50%

**Q.** And the Activity (Homo sapiens [16])?
**A.** 31.7 mg/dL

**Q.** What about the Activity (Homo sapiens [17]) of the same compound?
**A.** 18.8 mg/dL

**Q.** And the half-life [3]?
**A.** 4 h

**Q.** What about the Activity (Homo sapiens [18]) of the same compound?
**A.** 17.5 mg/dL

**Q.** What about the Activity (Homo sapiens [19]) of the same compound?
**A.** 10%

**Q.** And the “inhibition (INH)” value (Homo sapiens [20])?
**A.** <50%

**Q.** What about the “inhibition (INH)” value (Homo sapiens [21]) of the same compound?
**A.** >80%

**Q.** And the Activity (Homo sapiens [22])?
**A.** 7.2 mg/dL
